Laboratory results taken from US20170021042A1, “Flow-Through Pathogen Reduction” (Terumo BCT Biotechnologies, LLC, priority 2015, published 2017).
Marks after values point to notes of the source that are not given here.

How the values were obtained:
[1] = tested on: PhiX174; assay: PhiX174 reduction in plasma with riboflavin, UV-illuminated flow-through flow cells; details: for pathogen reduction (log reduction of PhiX174): plasma + riboflavin, irradiance 4.5 mW/cm2
Excerpt: The goal of this study is to obtain insight into the correlation between flow rate, channel thickness and pathogen reduction. The flow cells in this study have a relatively thicker channel and different flow configurations.
(§1) The flow cell mounts in a fixture (e.g., flow cell holder) which maintains channel thickness by applying pressure from both the top and bottom. The fixture houses eight illumination lamps driven at 800 mA with four on top and four on bottom producing an irradiance of 4.5 mW/cm2. Product can be flowed through the flow-cell, which is mounted adjacent to the light source, and then samples are taken on the back end.
The increased channel thickness results in decreased fluidic impedance requiring the use of a peristaltic pump to control flow rate instead of by gravity. The pump is calibrated prior to use to ensure flow rate accuracy.
1.5.5. Submit one sample tube for each sample for viral titer and save the other two samples for later analysis.
Below are the pathogen reduction results. In Table 6, cells with bold text indicate a sample that is within the limit of detection and cells with an asterisk indicate a sample that has six or less PhiX174 colonies at a one log dilution and is outside the limit of detection. Cells with underlined text indicate a sample is technically outside the limit of detection but has PhiX174 colonies allowing for the inferred calculation of pathogen reduction. Each cell also has dwell time in seconds and predicted dose. The lower predicted dose value takes into account the transmissivity of the plasma and flow cell. The higher predicted dose assumes that all light incident on the flow cell is absorbed by the plasma.

[2] = tested on: PhiX174; assay: PhiX174 reduction in whole blood with riboflavin, UV-illuminated flow-through flow cells
Excerpt: This study is designed to obtain insight into the correlation between flow rate, channel thickness and pathogen reduction of whole blood. The flow cells in this study have thin channels and different flow configurations. Thin channels are used because whole blood is less transmissive than plasma.
as §1, with “(e.g. a” for “(e.g.,”, “mW/cm^2.” for “mW/cm2.”, “can be” for “are”
A peristaltic pump to control flow rate is used with the pump will located after the flow cell so that negative pressure is applied to the flow cell by the pump instead of positive pressure. The pump is calibrated prior to use to ensure flow rate accuracy.
Two flow cell configurations being tested may be referred to as “8p” and “4s×2p”. The 8p configuration has all the channels in parallel; therefore the fluid crosses one channel before exiting the flow cell. The 4s×2p configuration requires the fluid to cross four channels in series before exiting the flow cell. […]

[3] = tested on: whole blood
Excerpt: The flow cell mounts in a fixture (e.g. a flow cell holder) which maintains channel thickness by applying pressure from both the top and bottom. The fixture houses eight illumination lamps driven at 800 mA with four on top and four on bottom producing an irradiance of 4.5 mW/cm^2. Product can be flowed through the flow-cell, which is mounted adjacent to the light source, and then samples can be taken on the back end.

Cc1cc2nc3c(=O)[nH]c(=O)nc-3n(C[C@H](O)[C@H](O)[C@H](O)CO)c2cc1C [riboflavin]
pathogen reduction (log reduction of PhiX174) ([1]; flow cell A, gap 3/1000" (0.0762 mm), flow rate 20 ml/min, dwell 2.9 sec): (~3.4 logs)*
pathogen reduction (log reduction of PhiX174) ([1]; flow cell A, gap 3/1000" (0.0762 mm), flow rate 40 ml/min, dwell 1.5 sec): (2.8 logs)*
pathogen reduction (log reduction of PhiX174) ([1]; flow cell B, gap 5/1000" (0.127 mm), flow rate 20 ml/min, dwell 4.9 sec): (~3.6 logs)*
pathogen reduction (log reduction of PhiX174) ([1]; flow cell B, gap 5/1000" (0.127 mm), flow rate 40 ml/min, dwell 2.43 sec): (2.6 logs)*
pathogen reduction (log reduction of PhiX174) ([1]; flow cell C, gap 12/1000" (0.305 mm), flow rate 40 ml/min, dwell 5.8 sec): (~3.9 logs)*
pathogen reduction (log reduction of PhiX174) ([1]; flow cell C, gap 12/1000" (0.305 mm), flow rate 80 ml/min, dwell 2.9 sec): (2.5 logs)*
pathogen reduction (log reduction of PhiX174) ([1]; flow cell D, gap 20/1000" (0.508 mm), flow rate 80 ml/min, dwell 4.7 sec): (2.9 logs)*
pathogen reduction, in words ([1]; plasma and riboflavin, all flow cells A-D): adequate pathogen reduction
pathogen reduction, in words [2]: within the acceptable pathogen reduction range
hemolysis, difference from hold control [3]: ≤ 0.06 % hemolysis
